In ChEMBL document CHEMBL3817748, “Identification of novel peptoid agonists of fibroblast growth factor receptor using microarray-based screening” (Medchemcomm, 2016):
The source made the active and inactive calls. The calls are words filed in the database; no cut-off is given here. *1 amine or outer side, *2 acyl side, *3 side chain or, on linkers, in order; H or OH if unused. Where a SMILES comes first, the peptide text is derived from it. [ ]: non-standard residue; d: D form. ξ: configuration not given here. Gly(N-(CH2)3N-pyrrolidone) = O=C(O)CNCCCN1CCCC1=O; Gly(N-CH2CH2C6H4-4Cl) = O=C(O)CNCCc1ccc(Cl)cc1; X1 = O=C(CN(Cc1cccc(C(F)(F)F)c1)[*:1])[*:2]; X3 = CC(c1ccccc1)N(CC(=O)[*:2])[*:1]; Nrpe = C[C@@H](NCC(=O)O)c1ccccc1; X2 = O=C(CN(CC1CCCO1)[*:1])[*:2]; NFurfurylGly = O=C(O)CNCc1ccco1; Gly(N-cPent) = O=C(O)CNC1CCCC1; NAllylGly = C=CCNCC(=O)O; Nphe = O=C(O)CNCc1ccccc1; Nlys = NCCCCNCC(=O)O; ξC = NC(CS)C(=O)O

Key:
Homo sapiens [1] = species on record: Homo sapiens; experiment: Binding affinity to Fc-tagged FGFR1alpha (unknown origin) at 100 uM after 1 hr by Texas-red labeled anti-Fc detection based microarray assay
Homo sapiens [2] = species on record: Homo sapiens; experiment: Binding affinity to Fc-tagged FGFR1alpha (unknown origin) at 50 uM after 1 hr by Texas-red labeled anti-Fc detection based microarray assay
Homo sapiens [3] = species on record: Homo sapiens; experiment: Binding affinity to Fc-tagged FGFR1alpha (unknown origin) at 25 uM after 1 hr by Texas-red labeled anti-Fc detection based microarray assay
Homo sapiens [4] = species on record: Homo sapiens; experiment: Binding affinity to Fc-tagged FGFR1alpha (unknown origin) at 150 uM by Texas-red labeled anti-Fc detection based fluorescence microscopic analysis
[5] = target: Fibroblast growth factor receptor 1 (Homo sapiens) (UniProt P11362); experiment: Agonist activity at FGFR1 in human MCF7 cells assessed as increase in Akt phosphorylation at 15 uM after 10 mins by Western blot analysis; type: cell-based
MCF7 = experiment: Agonist activity at FGFR1alpha in human MCF7 cells assessed as increase in ERK phosphorylation at 15 uM after 10 mins by Western blot analysis; type: cell-based
[6] = target: Fibroblast growth factor receptor 2 (Homo sapiens) (UniProt P21802); experiment: Agonist activity at FGFR2 in human MDA231 cells assessed as increase in Akt phosphorylation at 15 uM after 10 mins by Western blot analysis; type: cell-based
[7] = target: Fibroblast growth factor receptor 2 (Homo sapiens) (UniProt P21802); experiment: Agonist activity at FGFR2 in human MDA231 cells assessed as increase in ERK phosphorylation at 15 uM after 10 mins by Western blot analysis; type: cell-based
[8] = target: Fibroblast growth factor receptor 1 (Mus musculus) (UniProt P16092); experiment: Agonist activity at FGFR1 in mouse NIH-3T3 cells assessed as increase in Akt phosphorylation at 15 uM after 10 mins by Western blot analysis; type: cell-based; conditions: NIH3T3
[9] = target: Fibroblast growth factor receptor 1 (Mus musculus) (UniProt P16092); experiment: Agonist activity at FGFR1 in mouse NIH-3T3 cells assessed as increase in ERK phosphorylation at 15 uM after 10 mins by Western blot analysis; type: cell-based; conditions: NIH3T3
Homo sapiens [10] = species on record: Homo sapiens; experiment: Binding affinity to Fc-tagged FGFR1alpha (unknown origin) uM after 1 hr by FITC-labeled anti-Fc detection based microarray assay

Fibroblast growth factor receptor 2 (Homo sapiens), sequence (P21802 22-821 limits assumed): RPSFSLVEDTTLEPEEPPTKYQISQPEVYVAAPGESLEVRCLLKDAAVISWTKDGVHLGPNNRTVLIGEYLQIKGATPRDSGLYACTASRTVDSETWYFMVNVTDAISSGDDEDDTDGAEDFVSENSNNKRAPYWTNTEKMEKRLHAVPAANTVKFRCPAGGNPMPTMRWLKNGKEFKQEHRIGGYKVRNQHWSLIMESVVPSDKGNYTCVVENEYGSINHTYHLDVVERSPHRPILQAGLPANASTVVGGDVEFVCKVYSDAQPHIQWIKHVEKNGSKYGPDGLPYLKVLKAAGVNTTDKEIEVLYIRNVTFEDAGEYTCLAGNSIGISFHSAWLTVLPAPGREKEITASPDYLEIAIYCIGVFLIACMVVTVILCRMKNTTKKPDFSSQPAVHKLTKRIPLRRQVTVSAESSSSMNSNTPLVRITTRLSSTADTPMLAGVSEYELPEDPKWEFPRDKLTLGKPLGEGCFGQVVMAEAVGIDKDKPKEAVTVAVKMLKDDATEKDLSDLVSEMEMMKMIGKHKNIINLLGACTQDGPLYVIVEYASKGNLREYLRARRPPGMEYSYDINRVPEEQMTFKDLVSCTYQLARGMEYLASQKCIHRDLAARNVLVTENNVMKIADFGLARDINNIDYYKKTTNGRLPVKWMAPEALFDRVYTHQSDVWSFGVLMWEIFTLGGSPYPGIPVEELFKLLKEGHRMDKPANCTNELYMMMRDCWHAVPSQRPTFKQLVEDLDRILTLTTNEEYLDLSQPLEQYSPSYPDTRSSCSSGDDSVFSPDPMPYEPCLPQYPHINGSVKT
Fibroblast growth factor receptor 1 (Mus musculus), sequence (P16092 whole entry): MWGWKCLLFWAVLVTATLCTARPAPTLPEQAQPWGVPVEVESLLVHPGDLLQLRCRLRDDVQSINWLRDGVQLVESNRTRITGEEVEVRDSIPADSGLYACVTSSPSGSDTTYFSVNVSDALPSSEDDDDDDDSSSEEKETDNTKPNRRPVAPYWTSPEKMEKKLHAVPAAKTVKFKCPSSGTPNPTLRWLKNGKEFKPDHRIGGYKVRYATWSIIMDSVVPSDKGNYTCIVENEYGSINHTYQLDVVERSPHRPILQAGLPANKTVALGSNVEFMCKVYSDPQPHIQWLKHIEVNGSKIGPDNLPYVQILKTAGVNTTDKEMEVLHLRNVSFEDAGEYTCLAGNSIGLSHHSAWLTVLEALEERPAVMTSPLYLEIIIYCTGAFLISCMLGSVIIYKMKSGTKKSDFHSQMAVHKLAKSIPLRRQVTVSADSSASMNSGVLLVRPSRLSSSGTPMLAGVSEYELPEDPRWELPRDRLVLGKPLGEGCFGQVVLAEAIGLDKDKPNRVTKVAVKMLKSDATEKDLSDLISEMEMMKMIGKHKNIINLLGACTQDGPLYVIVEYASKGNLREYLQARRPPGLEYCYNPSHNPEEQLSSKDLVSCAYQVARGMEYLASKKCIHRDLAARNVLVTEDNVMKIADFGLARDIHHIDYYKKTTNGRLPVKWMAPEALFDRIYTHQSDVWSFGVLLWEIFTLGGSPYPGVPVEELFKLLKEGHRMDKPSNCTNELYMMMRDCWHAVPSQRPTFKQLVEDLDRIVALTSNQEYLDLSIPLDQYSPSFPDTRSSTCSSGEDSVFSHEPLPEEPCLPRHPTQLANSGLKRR
Fibroblast growth factor receptor 1 (Homo sapiens), sequence (P11362 22-822 limits assumed): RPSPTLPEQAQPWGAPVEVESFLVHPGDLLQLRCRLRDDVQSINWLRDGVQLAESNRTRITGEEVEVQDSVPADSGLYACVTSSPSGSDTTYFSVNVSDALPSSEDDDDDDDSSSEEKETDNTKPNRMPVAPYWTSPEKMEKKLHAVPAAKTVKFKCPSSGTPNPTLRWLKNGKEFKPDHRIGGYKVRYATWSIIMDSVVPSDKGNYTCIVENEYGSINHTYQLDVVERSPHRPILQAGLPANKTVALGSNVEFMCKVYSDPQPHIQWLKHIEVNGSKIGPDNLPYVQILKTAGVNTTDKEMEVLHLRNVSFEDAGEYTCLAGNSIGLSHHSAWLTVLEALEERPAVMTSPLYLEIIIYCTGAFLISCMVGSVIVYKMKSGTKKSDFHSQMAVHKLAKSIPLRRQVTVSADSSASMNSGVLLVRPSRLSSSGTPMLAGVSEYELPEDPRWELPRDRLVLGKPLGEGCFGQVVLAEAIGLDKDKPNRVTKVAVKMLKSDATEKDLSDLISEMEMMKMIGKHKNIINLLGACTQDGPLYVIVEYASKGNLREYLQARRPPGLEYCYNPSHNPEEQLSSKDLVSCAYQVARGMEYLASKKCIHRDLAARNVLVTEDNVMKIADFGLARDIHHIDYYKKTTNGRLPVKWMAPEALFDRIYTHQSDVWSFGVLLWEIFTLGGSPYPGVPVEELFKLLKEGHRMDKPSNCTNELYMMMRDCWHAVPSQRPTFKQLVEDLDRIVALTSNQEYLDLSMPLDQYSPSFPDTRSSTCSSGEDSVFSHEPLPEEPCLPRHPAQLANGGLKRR

C=CCN(CC(=O)N(CC(=O)N(CCCN1CCCC1=O)CC(=O)N(CCCCN)CC(=O)N(CCCCN)CC(=O)N[C@@H](CS)C(N)=O)CC1CCCO1)C(=O)CN(C(=O)CN(Cc1cccc(C(F)(F)F)c1)C(=O)CNCCCN1CCCC1=O)[C@H](C)c1ccccc1 (stereo partly specified) (H-[Gly(N-(CH2)3N-pyrrolidone)][X1][Nrpe][NAllylGly][X2][Gly(N-(CH2)3N-pyrrolidone)][Nlys][Nlys]C-NH2)
Activity (Homo sapiens [1]): Active
Activity (Homo sapiens [2]): Active
Activity (Homo sapiens [3]): Active
Activity (Homo sapiens [4]): Active
Activity [5]: Active
Activity (MCF7): Active
Activity [6]: Active
Activity [7]: Active
Activity [8]: Active
Activity [9]: Active
Activity (Homo sapiens [10]): Active

C=CCN(CC(=O)N(CC(=O)N(CCCCN)CC(=O)N(CCCCN)CC(=O)N[C@@H](CS)C(N)=O)Cc1ccco1)C(=O)CN(Cc1ccco1)C(=O)CN(CC1CCCO1)C(=O)CN(C(=O)CNCCc1ccc(Cl)cc1)C1CCCC1 (stereo partly specified) (H-[Gly(N-CH2CH2C6H4-4Cl)][Gly(N-cPent)][X2][NFurfurylGly][NAllylGly][NFurfurylGly][Nlys][Nlys]C-NH2)
Activity (Homo sapiens [1]): Active
Activity (Homo sapiens [2]): Active
Activity (Homo sapiens [3]): Active
Activity [5]: inactive
Activity (MCF7): inactive
Activity [6]: inactive
Activity [7]: inactive
Activity [8]: inactive
Activity [9]: inactive
Activity (Homo sapiens [10]): Active

CC(NCC(=O)N(CC(=O)N(CC(=O)N(CC(=O)N(CC(=O)N(CC(=O)N(CCCCN)CC(=O)N(CCCCN)CC(=O)NC(CS)C(N)=O)Cc1cccc(C(F)(F)F)c1)Cc1cccc(C(F)(F)F)c1)CC1CCCO1)Cc1ccccc1)C1CCCC1)c1ccccc1 (stereo unspecified)
Activity (Homo sapiens [1]): inactive
Activity (Homo sapiens [2]): inactive

C=CCN(CC(=O)N(CCCCN)CC(=O)N(CCCCN)CC(=O)N[C@@H](CS)C(N)=O)C(=O)CN(C(=O)CN(Cc1ccccc1)C(=O)CN(C(=O)CN(Cc1ccccc1)C(=O)CNC1CCCC1)C1CCCC1)[C@H](C)c1ccccc1 (H-[Gly(N-cPent)][Nphe][Gly(N-cPent)][Nphe][Nrpe][NAllylGly][Nlys][Nlys]C-NH2)
Activity (Homo sapiens [1]): Active
Activity (Homo sapiens [2]): Active
Activity (Homo sapiens [3]): Active
Activity [5]: Active
Activity (MCF7): Active
Activity [6]: Active
Activity [7]: Active
Activity [8]: Active
Activity [9]: Active
Activity (Homo sapiens [10]): Active

C=CCN(CC(=O)N(CC(=O)N(CCCCN)CC(=O)N(CCCCN)CC(=O)N[C@@H](CS)C(N)=O)[C@H](C)c1ccccc1)C(=O)CN(Cc1ccco1)C(=O)CN(C(=O)CN(Cc1cccc(C(F)(F)F)c1)C(=O)CNCc1ccccc1)C1CCCC1 (H-[Nphe][X1][Gly(N-cPent)][NFurfurylGly][NAllylGly][Nrpe][Nlys][Nlys]C-NH2)
Activity (Homo sapiens [1]): Active
Activity (Homo sapiens [2]): Active
Activity (Homo sapiens [3]): Active
Activity (Homo sapiens [4]): Active
Activity [5]: Active
Activity (MCF7): Active
Activity [6]: Active
Activity [7]: Active
Activity [8]: Active
Activity [9]: Active
Activity (Homo sapiens [10]): Active

C=CCN(CC(=O)N(CC(=O)N(CC(=O)N(CC(=O)N(CCCCN)CC(=O)N(CCCCN)CC(=O)NC(CS)C(N)=O)C1CCCC1)Cc1ccco1)Cc1cccc(C(F)(F)F)c1)C(=O)CN(C(=O)CNCCc1ccc(Cl)cc1)C(C)c1ccccc1 (stereo unspecified) (H-[Gly(N-CH2CH2C6H4-4Cl)][X3][NAllylGly][X1][NFurfurylGly][Gly(N-cPent)][Nlys][Nlys][ξC]-NH2)
Activity (Homo sapiens [1]): inactive
Activity (Homo sapiens [2]): inactive
